# Results from US9820997B2, “Pharmaceutical composition for treating disease associated with demyelination of neurons and method of using the pharmaceutical composition” (Samsung Electronics Co., Ltd., priority 2014, dated 2017).
# What was measured:
# PMP22 = PMP22 protein amount in PMP22-overexpressing SH-SY5Y cells by Western blot; format: cell-based, human; details: for amount of the PMP22 protein compared to negative control and positive control (AA): FIGS. 5A/5B
# Description: (§1) SH-SY5Y cells were inoculated at a concentration of 10^5 cells/ml in each well of a 12-well plate including 2 ml of a DMEM medium containing 10% FBS, 100 units/ml of penicillin, and 100 units/ml of streptomycin and incubated until the cell density was about 60% to about 65% in a 5% CO2 incubator at 37°. Then, dapsone (4,4′-diaminodiphenylsulfone, DDS) (available from Sigma), MADDS (available from Sigma), SSZ (available from Sigma), and SCM (available from Sigma) were respectively added to the wells at various concentrations and incubated for 24 hours under the same conditions. Vitamin C (ascorbic acid, AA) (available from Sigma) was used as the positive control group. Vitamin C is known as having an effect of treating peripheral neuropathy by using a cAMP modulator. SH-SY5Y cells are a human-derived cell line used in scientific research. The original cell line, SK-N-SH from which SH-SY5Y cells were subcloned, was isolated from a bone marrow biopsy taken from a person with neuroblastoma. SH-SY5Y cells are often used as in vitro models of neuronal function and differentiation. The SH-SY5Y cells used herein have been modified to consistently overexpress the human PMP22 gene by lentiviral mediated integration of PMP22 into a chromosome.
# After removing 2 ml of the culture medium, the SH-SY5Y cells were washed with phosphate buffered saline (PBS), and a lysis solution, 0.5% Triton X-100, in PBS was added thereto. Then, cells were collected using a scraper, left in ice for 30 minutes, and then, the cells were disrupted. Using a bicinchoninic acid (BCA) protein assay, the amount of protein in each sample was normalized to 1 ug/ul. SDS-PAGE (Invitrogen) was performed on the sample, and then Western blotting was performed with rabbit anti-PMP22 (Novus biological) and rabbit anti-actin (Sigma) primary antibodies, and an anti-rabbit secondary antibody.
# Zebrafish (Danio rerio) = assay: Remyelination in MTZ-demyelinated genetically engineered zebrafish, confocal fluorescence; format: in vivo; details: demyelinated central and peripheral nervous system; 10 uM
# PMP22 mRNA = PMP22 mRNA expression in SH-SY5Y cells by RT-PCR; format: cell-based, human; details: according to DDS concentration; FIG. 2
# Description: as §1, with “SH-SY5Y cells are often used as in vitro models of neuronal function and differentiation. The SH-SY5Y cells used herein have been modified to consistently overexpress the human PMP22 gene by lentiviral mediated integration of PMP22 into a chromosome.” left out
# Also, RNA from treated and untreated SH-SY5Y cells was extracted by with Trizol (Invitrogen). PM22 gene expression was analyzed by using a one-step RT-PCR kit (Qiagen), whereby the extracted RNA was mixed with a PMP22 gene specific primer set of SEQ ID NOS: 1 and 2, and a real time-PCR (RT-PCR) was performed to confirm the degree of mRNA expression.
# [1] = system: Tr-J mice (CMT mouse model); assay: Twitch/tetanus isometric force of soleus muscle; format: in vivo; details: 50 mg/kg, 2 months, vs placebo-treated mice, FIG. 11
# [2] = system: Tr-J mice (CMT mouse model); assay: Rotarod test in mice; format: in vivo; details: 50 mg/kg per day orally for 2 months
# [3] = system: Tr-J mice (CMT mouse model); assay: Sciatic nerve morphology by toluidine blue staining and g-ratio; format: in vivo; details: 50 mg/kg, 2 months
# Text: In this example, the effect of sulfasalzine on the CMT was investigated using Trembler-J (Tr-J) mice. The Tr-J mouse has a missense mutation in the murine peripheral myelin protein-22 gene (Pmp22). Pmp22 mutations are believed to cause the neuropathies of Charcot-Marie-tooth disease in humans (Nature 356, 241-244 (19 Mar. 1992); doi:10.1038/356241a0). Two month old heterozygous Tr^J mice in the C57BL/6J background were obtained from Jackson Laboratories (Bar Harbor, Me.). Matings between Tr-J heterozygous females and males in the C57BL/6 genetic background were implemented to generate Tr-J heterozygous and wild-type controls.
# Sulfasalazine was obtained from Sigma-Aldrich, St. Louis. Sulfasalazine (50 mg/kg daily) was administered orally to female mice (n=4-5 per group) via sulfasalazine-containing drinking water. Before sulfasalazine oral intervention, weight and daily water intake of the mice was measured to determine the dose of sulfasalazine. Each Tr-J and WT mice were administered sulfasalazine drinking water for 2 months (50 mg/kg daily).
# After 2 months oral intervention, sciatic nerves were harvested from mice (WT+/−50 mg/kg sulfasalazine and Trembler J+/−50 mg/kg sulfasalazine). Nerves were fixed in 2% (w/v) glutaraldehyde in 0.1 M phosphate buffer (pH 7.4) for 4 h, followed by washing with 0.1 M phosphate buffer. […] Sample sections were evaluated using light microscopy.
compound,measurement,setting,value
"Nc1ccc(S(=O)(=O)c2ccc(N)cc2)cc1 [DDS, 4,4′-diaminodiphenylsulfone]",amount of the PMP22 protein compared to negative control and positive control (AA),PMP22,significantly decreased
same,amount of PMP22 protein,"PMP22; as the concentration of DDS increases, 24 hours, n=4, FIGS. 1A/1B",decreased
same,effect on the promotion of remyelination,Zebrafish (Danio rerio),confirmed
same,expression of PM22 mRNA,PMP22 mRNA,did not show a significant difference
"CC(=O)Nc1ccc(S(=O)(=O)c2ccc(N)cc2)cc1 [MADDS, mono N-acetyldapsone]",amount of the PMP22 protein compared to negative control and positive control (AA),PMP22,significantly decreased
same,effect on the promotion of remyelination,Zebrafish (Danio rerio),confirmed
"CC(=O)NS(=O)(=O)c1ccc(N)cc1 [SCM, N-[(4-aminophenyl)sulfonyl]acetamide]",amount of the PMP22 protein compared to the control group,"PMP22; vs DMSO control, FIGS. 4A/4B",decreased
same,effect on the promotion of remyelination,Zebrafish (Danio rerio),confirmed
O=C(O)c1cc(/N=N/c2ccc(S(=O)(=O)Nc3ccccn3)cc2)ccc1O [SSZ],tetanus contraction in Soleus tendon,[1],significantly increased
same,twitch contraction in Soleus tendon,[1],significantly increased
same,time on rod,"[2]; Tr-J mice, vs placebo-treated Tr-J mice",significantly increased
same,time on rod,"[2]; WT mice, vs placebo-treated WT mice",decreased
same,g-ratio of sciatic nerve,"[3]; Tr-J mice, vs vehicle treated Tr-J mice, FIG. 10C",significantly lower
same,number of myelinated axons in sciatic nerve,"[3]; Tr-J mouse, vs vehicle-treated Tr-J mouse, FIG. 10A",significantly increased
same,effect on the promotion of remyelination,Zebrafish (Danio rerio),confirmed
